Data set [1] relates to MKN-28. The data set can be described thus: Antiproliferative activity against human MKN28 cells after 48 hrs by sulforhodamine B assay. It is filed as functional, cell-based. Particulars: MKN-28, 48 h.
The subject of data set [2] is Caco-2. The data set can be described thus: Antiproliferative activity against human Caco2 cells after 48 hrs by sulforhodamine B assay. Particulars: Caco-2, 48 h. The data set is classed as functional, cell-based.
In data set [3] the test system is HT-29. The data set can be described thus: Antiproliferative activity against human HT-29 cells after 48 hrs by sulforhodamine B assay. The conditions noted are these: for pIC50: HT-29, 48 h. It is filed as functional, cell-based. On the technique in general: The SRB assay estimates cell density from bound dye.
A short description of data set [4]: Prodrug conversion in pH 7.4 phosphate buffered saline assessed as gemcitabine release by HPLC method.
Data set [5] in a line: Half life in pH 7.4 phosphate buffered saline by HPLC method. It is filed as physicochemical.
Data set [6] concerns HT-29. In words: Growth inhibition of human HT-29 cells after 48 hrs by sulforhodamine B assay relative to control. It is filed as functional.

pIC50: −log10 of the molar value. Peptide text beside a SMILES is read from it. * marks the point of attachment. X1 = O=C(CCS*)Nc1ccn([C@@H]2O[C@H](CO)[C@@H](O)C2(F)F)c(=O)n1

Broadly, the pIC50 is the negative decadic logarithm of the IC50, by convention in mol/L. High values mean a small IC50, low ones a large IC50. As a reminder, the half-life is the time in which the quantity being followed falls by half.

As to `CC[C@H](C)[C@H](NC(=O)[C@H](CCCCN)NC(=O)[C@@H](NC(=O)[C@H](CCC(N)=O)NC(=O)[C@H](CCCNC(=N)N)NC(=O)[C@@H](N)CS)[C@@H](C)CC)C(=O)N[C@@H](Cc1c[nH]c2ccccc12)C(=O)N[C@@H](Cc1ccccc1)C(=O)N[C@@H](CCC(N)=O)C(=O)N[C@@H](CC(N)=O)C(=O)N[C@@H](CCCNC(=N)N)C(=O)N[C@@H](CCCNC(=N)N)C(=O)N[C@@H](CCSC)C(=O)N[C@@H](CCCCN)C(=O)N[C@@H](Cc1c[nH]c2ccccc12)C(=O)N[C@@H](CCCCN)C(=O)N[C@@H](CCCCN)C(=O)O`, the pIC50 in data set [1], in data set [2] and in data set [3] was below 4.00 each time.
Regarding `CC[C@H](C)[C@H](NC(=O)[C@H](CCCCN)NC(=O)[C@@H](NC(=O)[C@H](CCC(N)=O)NC(=O)[C@H](CCCNC(=N)N)NC(=O)[C@@H](N)CSSCCC(=O)Nc1ccn([C@@H]2O[C@H](CO)[C@@H](O)C2(F)F)c(=O)n1)[C@@H](C)CC)C(=O)N[C@@H](Cc1c[nH]c2ccccc12)C(=O)N[C@@H](Cc1ccccc1)C(=O)N[C@@H](CCC(N)=O)C(=O)N[C@@H](CC(N)=O)C(=O)N[C@@H](CCCNC(=N)N)C(=O)N[C@@H](CCCNC(=N)N)C(=O)N[C@@H](CCSC)C(=O)N[C@@H](CCCCN)C(=O)N[C@@H](Cc1c[nH]c2ccccc12)C(=O)N[C@@H](CCCCN)C(=O)N[C@@H](CCCCN)C(=O)O`, in data set [4], the Drug metabolism result was “Metabolite detected”. In addition, the half-life in data set [5] was 230 h. For the same compound, the pIC50 in data set [1] is 4.33; in data set [2] it was 4.17; in data set [3] it was 4.33. The Activity result in data set [3] is “Dose-dependent effect”.
For the compound `CC[C@H](C)[C@H](NC(=O)[C@H](CCCNC(=N)N)NC(=O)[C@H](CCCNC(=N)N)NC(=O)[C@H](CCCNC(=N)N)NC(=O)[C@H](CC(C)C)NC(=O)[C@@H](NC(=O)[C@@H](NC(=O)[C@H](CC(C)C)NC(=O)[C@H](CC(C)C)NC(=O)[C@@H](N)CSSCCC(=O)Nc1ccn([C@@H]2O[C@H](CO)[C@@H](O)C2(F)F)c(=O)n1)[C@@H](C)CC)[C@@H](C)CC)C(=O)N[C@@H](CCCNC(=N)N)C(=O)N[C@@H](CCCCN)C(=O)N[C@@H](CCC(N)=O)C(=O)N[C@@H](C)C(=O)N[C@@H](Cc1cnc[nH]1)C(=O)N[C@@H](C)C(=O)N[C@@H](Cc1cnc[nH]1)C(=O)N[C@@H](CO)C(=O)N[C@@H](CCCCN)C(=O)O` (H-C(X1)LLIILRRRIRKQAHAHSK-OH), the Drug metabolism entry in data set [4] was “Metabolite detected”. In addition, in data set [5], the half-life is 42 h. Also, the pIC50 in data set [1] is 4.68; in data set [2], below 4.00; in data set [3], 4.34. The Activity result in data set [3] was “Dose-dependent effect”.
Consider `Nc1ccn([C@@H]2O[C@H](CO)[C@@H](O)C2(F)F)c(=O)n1` [GEMCITABINE], for which the pIC50 in data set [1], in data set [2] and in data set [3] was below 4.00 each time. Moreover, in data set [6], the “growth inhibition (GI)” value is given as 30%.
Regarding H-CLLIILRRRIRKQAHAHSK-OH, the pIC50 in data set [1], in data set [2] and in data set [3] was below 4.00 throughout.

These data come from ChEMBL document CHEMBL4020769, “Gemcitabine anti-proliferative activity significantly enhanced upon conjugation with cell-penetrating peptides” (Bioorg Med Chem Lett, 2017).
